Reference: ChEMBL document CHEMBL5325462, “Regioselective synthesis and in vitro cytotoxicity evaluation of 3-thiooxindole derivatives: Tubulin polymerization inhibition and apoptosis inducing studies” (Bioorg Med Chem, 2023)
Calls of active or inactive are those of the source. No cut-off for these calls is given here.

How the values were obtained:
[1] = Cytotoxicity against rat NRK cells assessed as inhibition of cell growth measured after 72 hrs by MTT assay; type: toxicity, cell-based
BT-474 = assay: Cytotoxicity against human BT-474 cells assessed as inhibition of cell growth measured after 72 hrs by MTT assay; type: functional, cell-based; conditions: BT-474, 72 h
MCF7 = assay: Cytotoxicity against human MCF7 cells assessed as inhibition of cell growth measured after 72 hrs by MTT assay; type: functional, cell-based; conditions: MCF7, 72 h
SK-MEL-28 = assay: Cytotoxicity against human SK-MEL-28 cells assessed as inhibition of cell growth measured after 72 hrs by MTT assay; type: functional, cell-based; conditions: SK-MEL-28, 72 h
HCT-116 [2] = assay: Cytotoxicity against human HCT-116 cells assessed as inhibition of cell growth measured after 72 hrs by MTT assay; type: functional, cell-based; conditions: HCT-116, 72 h
A549 = assay: Cytotoxicity against human A549 cells assessed as inhibition of cell growth measured after 72 hrs by MTT assay; type: functional, cell-based; conditions: A549, 72 h
HCT-116 [3] = assay: Inhibition of cell invasion in human HCT-116 cells at 3.36 to 13.46 uM measured after 48 hrs by phase contrast microscopic analysis; type: functional, cell-based; conditions: dose 3.36-13.46 µM
HCT-116 [4] = assay: Induction of ROS production in human HCT-116 cells at 3.36 uM incubated for 72 hrs by DCFDA staining based fluorescence microscopic analysis; type: functional, cell-based
HCT-116 [5] = assay: Induction of morphological changes in human HCT-116 cells assessed as formation of necrotic bodies incubated for 24 hrs by acridine orange/ethidium bromide staining based fluorescence microscopic analysis; type: functional, cell-based
HCT-116 [6] = assay: Induction of morphological changes in human HCT-116 cells assessed as formation of apoptotic bodies incubated for 24 hrs by acridine orange/ethidium bromide staining based fluorescence microscopic analysis; type: functional, cell-based
HCT-116 [7] = assay: Induction of morphological changes in human HCT-116 cells assessed as cell nucleus shrinkage at 3.36 to 13.46 uM measured after 48 hrs by phase contrast microscope; type: functional, cell-based; conditions: dose 3.36-13.46 µM
HCT-116 [8] = assay: Induction of nuclear morphological changes in human HCT-116 cells assessed as change in nuclear condensation measured after 48 hrs by DAPI-staining based fluorescence microscopic analysis; type: functional, cell-based
HCT-116 [9] = assay: Induction of nuclear morphological changes in human HCT-116 cells assessed as change in nuclear shape measured after 48 hrs by DAPI-staining based fluorescence microscopic analysis; type: functional, cell-based
HCT-116 [10] = assay: Induction of morphological changes in human HCT-116 cells assessed as cell detachment at 3.36 to 13.46 uM measured after 48 hrs by phase contrast microscope; type: functional, cell-based; conditions: dose 3.36-13.46 µM
HCT-116 [11] = assay: Induction of apoptosis in human HCT-116 cells assessed as reduction in cell viability at 3.36 to 13.46 uM measured after 48 hrs by phase contrast microscope; type: functional, cell-based; conditions: dose 3.36-13.46 µM
HCT-116 [12] = assay: Induction of nuclear morphological changes in human HCT-116 cells assessed as horseshoe shaped nuclei formation measured after 48 hrs by DAPI-staining based fluorescence microscopic analysis; type: functional, cell-based

SMILES	IC50 at 72 h [1] [µM]	IC50 (BT-474) [µM]	IC50 (MCF7) [µM]	IC50 (SK-MEL-28) [µM]	IC50 (HCT-116 [2]) [µM]	IC50 (A549) [µM]	inhibition (HCT-116 [3])	Activity (HCT-116 [4])	Activity (HCT-116 [5])	Activity (HCT-116 [6])	Activity (HCT-116 [7])	Activity (HCT-116 [8])	Activity (HCT-116 [9])	Activity (HCT-116 [10])	Activity (HCT-116 [11])	Activity (HCT-116 [12])
CC(C)(C)S(=O)(=O)NCC1(Sc2nnc(-c3ccc(Cl)c(Cl)c3)o2)C(=O)N(Cc2ccc(Br)cc2)c2ccccc21 (stereo unspecified)	21.9	15.3	> 50	13.7	> 50	41.7	–	–	–	–	–	–	–	–	–	–
O=c1[nH]cc(F)c(=O)[nH]1 [FLUOROURACIL]	–	–	24.8	–	16.6	25.4	–	–	–	–	–	–	–	–	–	–
Cc1ccc(CN2C(=O)C(CNS(=O)(=O)C(C)(C)C)(Sc3nnc(-c4ccccc4)o3)c3ccccc32)cc1 (stereo unspecified)	18	12.3	13.9	17.1	6.73	14.2	Active	Active	Active	Dose-Dependent Effect	Active	Dose-Dependent Effect	Dose-Dependent Effect	Active	Active	Dose-Dependent Effect
CN1C(=O)C(CNS(=O)(=O)C(C)(C)C)(Sc2nc3ccccc3[nH]2)c2cc(Br)ccc21 (stereo unspecified)	25.7	13.1	12.8	16.8	12.3	18.2	–	–	–	–	–	–	–	–	–	–
Cc1ccc2c(c1)C(CNS(=O)(=O)C(C)(C)C)(Sc1nnc(-c3ccccc3)o1)C(=O)N2Cc1ccccc1 (stereo unspecified)	12.7	23.6	34.3	15.6	> 50	> 50	–	–	–	–	–	–	–	–	–	–
CC(C)(C)S(=O)(=O)NCC1(Sc2nnc(-c3ccc(Cl)cc3)n2-c2ccccc2)C(=O)N(Cc2ccccc2)c2ccccc21 (stereo unspecified)	24.8	16	45	> 50	> 50	> 50	–	–	–	–	–	–	–	–	–	–
CC(C)(C)S(=O)(=O)NCC1(Sc2nnc(-c3ccccc3)o2)C(=O)N(Cc2ccccc2)c2ccccc21 (stereo unspecified)	31.9	14.5	15.5	17.7	15.4	14.2	–	–	–	–	–	–	–	–	–	–
CC(C)(C)S(=O)(=O)NCC1(Sc2nnc(-c3ccccc3)o2)C(=O)N(Cc2ccccc2)c2ccc(F)cc21 (stereo unspecified)	33.3	16.7	40.4	30.4	> 50	37.8	–	–	–	–	–	–	–	–	–	–
Cc1ccc2c(c1)C(CNS(=O)(=O)C(C)(C)C)(Sc1nc3ccccc3s1)C(=O)N2C (stereo unspecified)	26.8	13.2	17.2	23.6	8.99	18.2	–	–	–	–	–	–	–	–	–	–
CC(C)(C)S(=O)(=O)NCC1(Sc2nc3ccccc3[nH]2)C(=O)N(Cc2ccccc2)c2ccccc21 (stereo unspecified)	17.9	15.2	> 50	22.3	43.1	31.2	–	–	–	–	–	–	–	–	–	–
CC(C)(C)S(=O)(=O)NCC1(Sc2nnc(-c3cccc(Br)c3)o2)C(=O)N(Cc2ccccc2)c2ccccc21 (stereo unspecified)	14.1	12.7	12.8	12.6	12.1	12.1	–	–	–	–	–	–	–	–	–	–
COc1cccc(-c2nnc(SC3(CNS(=O)(=O)C(C)(C)C)C(=O)N(Cc4ccccc4)c4ccccc43)o2)c1 (stereo unspecified)	22.9	14	> 50	15.3	> 50	30.7	–	–	–	–	–	–	–	–	–	–
COc1cccc(-c2nnc(SC3(CNS(=O)(=O)C(C)(C)C)C(=O)N(Cc4ccc(Br)cc4)c4ccccc43)n2-c2ccccc2)c1 (stereo unspecified)	21.8	13.8	35.8	26.1	> 50	> 50	–	–	–	–	–	–	–	–	–	–
Cc1ccc(CN2C(=O)C(CNS(=O)(=O)C(C)(C)C)(Sc3nc4ccccc4[nH]3)c3ccccc32)cc1 (stereo unspecified)	21.8	13.3	13.9	33.6	8.96	13.2	–	–	–	–	–	–	–	–	–	–
